Experimental data taken from ChEMBL document CHEMBL6120997, “Macrocyclic Compounds with Diverse Skeletons from the Roots of Myrica nana and Their Spasmolytic Activity” (J Nat Prod, 2025).
Calls of active or inactive are those of the source. No cut-off for these calls is given here.

Legend:
Ileum [1] = assay: Ex vivo spasmolytic activity in ACh-induced contractions in Sprague-Dawley rat ileum incubated for 5 mins; format: functional, tissue-based
Ileum [2] = assay: Ex vivo spasmolytic activity in ACh-induced contractions in Sprague-Dawley rat ileum incubated for 5 mins in presence of CsCl; format: functional, tissue-based
Ileum [3] = assay: Ex vivo spasmolytic activity in ACh-induced contractions in Sprague-Dawley rat ileum at 0.5 to 8 uM incubated for 5 mins in presence of GLIB relative to control; format: functional; conditions: dose 0.5-8 µM
Ileum [4] = assay: Ex vivo spasmolytic activity in ACh-induced contractions in Sprague-Dawley rat ileum incubated for 5 mins in presence of TEA; format: functional, tissue-based
Ileum [5] = assay: Ex vivo spasmolytic activity in ACh-induced contractions in Sprague-Dawley rat ileum at 0.5 to 8 uM incubated for 5 mins in presence of CsCl relative to control; format: functional; conditions: dose 0.5-8 µM
Ileum [6] = assay: Ex vivo spasmolytic activity in ACh-induced contractions in Sprague-Dawley rat ileum incubated for 5 mins in presence L-NAME; format: functional, tissue-based
Ileum [7] = assay: Ex vivo spasmolytic activity in ACh-induced contractions in Sprague-Dawley rat ileum incubated for 5 mins in presence of 4-AP; format: functional, tissue-based
Ileum [8] = assay: Ex vivo spasmolytic activity in ACh-induced contractions in Sprague-Dawley rat ileum at 0.5 to 8 uM incubated for 5 mins in presence ODQ relative to control; format: functional; conditions: dose 0.5-8 µM
Ileum [9] = assay: Ex vivo spasmolytic activity in ACh-induced contractions in Sprague-Dawley rat ileum at 0.5 to 8 uM incubated for 5 mins relative to control; format: functional; conditions: dose 0.5-8 µM
Ileum [10] = assay: Ex vivo spasmolytic activity in ACh-induced contractions in Sprague-Dawley rat ileum incubated for 5 mins in presence ODQ; format: functional, tissue-based
Ileum [11] = assay: Ex vivo spasmolytic activity in CaCl2-induced contractions in Sprague-Dawley rat ileum at 1 to 2 uM incubated for 15 mins; format: functional, tissue-based; conditions: dose 1-2 µM
Ileum [12] = assay: Ex vivo spasmolytic activity in ACh-induced contractions in Sprague-Dawley rat ileum at 0.5 to 8 uM incubated for 5 mins in presence of TEA relative to control; format: functional; conditions: dose 0.5-8 µM
Ileum [13] = assay: Ex vivo spasmolytic activity in ACh-induced contractions in Sprague-Dawley rat ileum at 0.5 to 8 uM incubated for 5 mins in presence L-NAME relative to control; format: functional; conditions: dose 0.5-8 µM
Ileum [14] = assay: Ex vivo spasmolytic activity in ACh-induced contractions in Sprague-Dawley rat ileum incubated for 5 mins in presence of GLIB; format: functional, tissue-based
Ileum [15] = assay: Ex vivo spasmolytic activity in ACh-induced contractions in Sprague-Dawley rat ileum at 0.5 to 8 uM incubated for 5 mins in presence of 4-AP relative to control; format: functional; conditions: dose 0.5-8 µM
Ileum [16] = assay: Ex vivo spasmolytic activity in ACh-induced contractions in Sprague-Dawley rat ileum at 2 uM incubated for 5 mins; format: functional, tissue-based

| SMILES | EC50 (Ileum [1]) [nM] | other results |
| --- | --- | --- |
| COc1c2cc(c(O[C@@H]3O[C@H](CO)[C@@H](O)[C@H](O)[C@H]3O)c1OC)CCCCC(=O)[C@@H](O)Cc1ccc(O)c-2c1 | 2400 |  |
| COc1c2cc(c(O)c1OC)CCCC[C@@H](O)CCc1ccc(O)c-2c1 | 2900 |  |
| COc1cc2cc(c1OC)-c1cc(ccc1O)CCC(=O)CCCC2 | 5000 |  |
| COc1c2cc(c(OC)c1OC)-c1cc(ccc1O)C[C@@H](O)[C@@H](O)CCCC2 | 2800 |  |
| COc1c2ccc(c1O)CCCCC(=O)CCc1ccc(O)c(c1)O2 | 3800 |  |
| COc1c2cc(c(OC)c1O)-c1cc(ccc1O)CC[C@H](O)CCCC2 | 1500 |  |
| COc1c2cc(c(O[C@@H]3O[C@H](CO)[C@@H](O)[C@H](O)[C@H]3O)c1OC)CCCC[C@@H](OC(C)=O)CCc1ccc(O)c-2c1 | 2800 |  |
| COc1c2cc(c(O[C@@H]3O[C@H](CO)[C@@H](O)[C@H](O)[C@H]3O)c1OC)CCCC[C@H](O)CCc1ccc(O)c-2c1 | 2400 |  |
| COc1cc2cc(c1OC)-c1cc(ccc1O)C[C@H](O)C(=O)CCC2 | 1400 | EC50 (Ileum [2]): 1600 nM; Emax (Ileum [3]): 84.9%; EC50 (Ileum [4]): 1500 nM; Emax (Ileum [5]): 82.7%; EC50 (Ileum [6]): 5100 nM; EC50 (Ileum [7]): 1900 nM; Emax (Ileum [8]): 81.7%; Emax (Ileum [9]): 79.8%; EC50 (Ileum [10]): 1600 nM; Activity (Ileum [11]): Active; Emax (Ileum [12]): 60.8%; Emax (Ileum [13]): 43%; EC50 (Ileum [14]): 1700 nM; Emax (Ileum [15]): 71.9%; Activity (Ileum [16]): Active; Activity Less Than Dichloromethane |
| COc1c2ccc(c1O[C@@H]1O[C@H](CO)[C@@H](O)[C@H](O)[C@H]1O)CCCCC(O)CCc1ccc(O)c(c1)O2 (stereo partly drawn) | 3600 |  |
| COc1c2cc(c(OC)c1OC)-c1cc(ccc1O)[C@H](O)CC(=O)CCCC2 | 4600 |  |
| CCN(CC)CCOC(=O)C1(C2CCCCC2)CCCCC1 [DICYCLOMINE] | 600 |  |
| COc1c2cc(c(O)c1OC)CCCC[C@@H](OC(C)=O)CCc1ccc(O)c-2c1 | 3700 |  |
| COc1c2cc(c(O[C@@H]3O[C@H](CO)[C@@H](O)[C@H](O)[C@H]3O)c1OC)CCCC(=O)[C@@H](O)Cc1ccc(O)c-2c1 | 1600 |  |
| COc1c2cc(c(O)c1OC)CCCCC(=O)CCc1ccc(O)c-2c1 [MYRICANONE] | 2900 |  |
| COc1c2cc(c(O[C@@H]3O[C@H](CO)[C@@H](O)[C@H](O)[C@H]3O)c1OC)CCCCC(=O)CCc1ccc(O)c-2c1 | 2300 |  |
| COc1c2cc(c(O)c1OC)CCCC(=O)[C@@H](O)Cc1ccc(O)c-2c1 | 5100 |  |
| COc1c2cc(c(O[C@@H]3O[C@H](CO)[C@@H](O)[C@H](O)[C@H]3O)c1OC)CCCC[C@@H](O)CCc1ccc(O)c-2c1 | 3200 |  |
